Data published in the CheMixHub ionic liquid set.
± gives the uncertainty stated by the source.

Assay: xn = mol fraction of the nth substance listed
Settings: 100 kPa

CCCCCCCC[n+]1ccccc1.[Br-] + CC(C)[C@H](NC(=O)CN)C(=O)O + O
Settings | electrical conductivity [S/m]
298.15 K, x2 = 0.001788, x1 = 0.005721 | 1.59 ± 0.096
298.15 K, x2 = 0.001788, x1 = 0.00598 | 1.64 ± 0.098
298.15 K, x2 = 0.001789, x1 = 0.00542 | 1.54 ± 0.092
298.15 K, x2 = 0.00179, x1 = 0.004736 | 1.42 ± 0.085
298.15 K, x2 = 0.00179, x1 = 0.005091 | 1.49 ± 0.089
298.15 K, x2 = 0.001791, x1 = 0.004349 | 1.35 ± 0.081
298.15 K, x2 = 0.001792, x1 = 0.003932 | 1.27 ± 0.076
298.15 K, x2 = 0.001793, x1 = 0.002972 | 1.03 ± 0.062
298.15 K, x2 = 0.001793, x1 = 0.003476 | 1.17 ± 0.07
298.15 K, x2 = 0.001794, x1 = 0.002419 | 0.883 ± 0.053
298.15 K, x2 = 0.001796, x1 = 0.001458 | 0.586 ± 0.035
298.15 K, x2 = 0.001796, x1 = 0.001805 | 0.699 ± 0.042
298.15 K, x2 = 0.001797, x1 = 0.0007114 | 0.326 ± 0.02
298.15 K, x2 = 0.001797, x1 = 0.001099 | 0.462 ± 0.028
303.15 K, x2 = 0.0008946, x1 = 0.006155 | 1.91 ± 0.12
303.15 K, x2 = 0.0008949, x1 = 0.005878 | 1.86 ± 0.11
303.15 K, x2 = 0.0008952, x1 = 0.005571 | 1.8 ± 0.11
303.15 K, x2 = 0.0008955, x1 = 0.005244 | 1.74 ± 0.1
303.15 K, x2 = 0.0008958, x1 = 0.004883 | 1.67 ± 0.1
303.15 K, x2 = 0.0008961, x1 = 0.004503 | 1.6 ± 0.096
303.15 K, x2 = 0.0008965, x1 = 0.004075 | 1.49 ± 0.09
303.15 K, x2 = 0.0008969, x1 = 0.003606 | 1.38 ± 0.083
303.15 K, x2 = 0.0008974, x1 = 0.003092 | 1.22 ± 0.073
303.15 K, x2 = 0.0008979, x1 = 0.002527 | 1.05 ± 0.063
303.15 K, x2 = 0.0008985, x1 = 0.001896 | 0.834 ± 0.05
303.15 K, x2 = 0.0008988, x1 = 0.001509 | 0.689 ± 0.042
303.15 K, x2 = 0.0008992, x1 = 0.001132 | 0.543 ± 0.033
303.15 K, x2 = 0.0008995, x1 = 0.0007259 | 0.385 ± 0.023
303.15 K, x2 = 0.001788, x1 = 0.005719 | 1.79 ± 0.11
303.15 K, x2 = 0.001788, x1 = 0.005978 | 1.84 ± 0.11
303.15 K, x2 = 0.001789, x1 = 0.005417 | 1.73 ± 0.1
303.15 K, x2 = 0.00179, x1 = 0.004734 | 1.6 ± 0.096
303.15 K, x2 = 0.00179, x1 = 0.005087 | 1.67 ± 0.1
303.15 K, x2 = 0.001791, x1 = 0.004349 | 1.52 ± 0.091
303.15 K, x2 = 0.001792, x1 = 0.00393 | 1.42 ± 0.085
303.15 K, x2 = 0.001793, x1 = 0.002972 | 1.16 ± 0.069
303.15 K, x2 = 0.001793, x1 = 0.003474 | 1.3 ± 0.078
303.15 K, x2 = 0.001794, x1 = 0.002419 | 0.983 ± 0.059
303.15 K, x2 = 0.001796, x1 = 0.001458 | 0.652 ± 0.039
303.15 K, x2 = 0.001796, x1 = 0.001805 | 0.778 ± 0.047
303.15 K, x2 = 0.001797, x1 = 0.0007114 | 0.361 ± 0.022
303.15 K, x2 = 0.001797, x1 = 0.001099 | 0.512 ± 0.031
308.15 K, x2 = 0.0008946, x1 = 0.006153 | 2.17 ± 0.13
308.15 K, x2 = 0.0008949, x1 = 0.005877 | 2.11 ± 0.13
308.15 K, x2 = 0.0008952, x1 = 0.00557 | 2.04 ± 0.12
308.15 K, x2 = 0.0008955, x1 = 0.005243 | 1.95 ± 0.12
308.15 K, x2 = 0.0008958, x1 = 0.004881 | 1.86 ± 0.11
308.15 K, x2 = 0.0008961, x1 = 0.004503 | 1.77 ± 0.11
308.15 K, x2 = 0.0008965, x1 = 0.004075 | 1.66 ± 0.1
308.15 K, x2 = 0.0008969, x1 = 0.003606 | 1.52 ± 0.091
308.15 K, x2 = 0.0008974, x1 = 0.003092 | 1.35 ± 0.081
308.15 K, x2 = 0.0008979, x1 = 0.002525 | 1.15 ± 0.069
308.15 K, x2 = 0.0008985, x1 = 0.001896 | 0.905 ± 0.054
308.15 K, x2 = 0.0008988, x1 = 0.001509 | 0.753 ± 0.045
308.15 K, x2 = 0.0008992, x1 = 0.001132 | 0.6 ± 0.036
308.15 K, x2 = 0.0008995, x1 = 0.0007259 | 0.446 ± 0.027
308.15 K, x2 = 0.001788, x1 = 0.005717 | 2 ± 0.12
308.15 K, x2 = 0.001788, x1 = 0.005974 | 2.06 ± 0.12
308.15 K, x2 = 0.001789, x1 = 0.005415 | 1.94 ± 0.12
308.15 K, x2 = 0.00179, x1 = 0.004732 | 1.78 ± 0.11
308.15 K, x2 = 0.00179, x1 = 0.005087 | 1.86 ± 0.11
308.15 K, x2 = 0.001791, x1 = 0.004348 | 1.68 ± 0.1
308.15 K, x2 = 0.001792, x1 = 0.00393 | 1.58 ± 0.095
308.15 K, x2 = 0.001793, x1 = 0.002972 | 1.28 ± 0.077
308.15 K, x2 = 0.001793, x1 = 0.003474 | 1.44 ± 0.086
308.15 K, x2 = 0.001794, x1 = 0.002419 | 1.09 ± 0.065
308.15 K, x2 = 0.001796, x1 = 0.001456 | 0.714 ± 0.043
308.15 K, x2 = 0.001796, x1 = 0.001805 | 0.853 ± 0.051
308.15 K, x2 = 0.001797, x1 = 0.0007114 | 0.409 ± 0.025
308.15 K, x2 = 0.001797, x1 = 0.001099 | 0.567 ± 0.034
